Experimental data published in the Kinase Knowledgebase extract (Sharma et al. 2016).

Target: EGFR (UniProt P00533)
Settings: not given

Chain of EGFR (P00533 whole entry, looked up): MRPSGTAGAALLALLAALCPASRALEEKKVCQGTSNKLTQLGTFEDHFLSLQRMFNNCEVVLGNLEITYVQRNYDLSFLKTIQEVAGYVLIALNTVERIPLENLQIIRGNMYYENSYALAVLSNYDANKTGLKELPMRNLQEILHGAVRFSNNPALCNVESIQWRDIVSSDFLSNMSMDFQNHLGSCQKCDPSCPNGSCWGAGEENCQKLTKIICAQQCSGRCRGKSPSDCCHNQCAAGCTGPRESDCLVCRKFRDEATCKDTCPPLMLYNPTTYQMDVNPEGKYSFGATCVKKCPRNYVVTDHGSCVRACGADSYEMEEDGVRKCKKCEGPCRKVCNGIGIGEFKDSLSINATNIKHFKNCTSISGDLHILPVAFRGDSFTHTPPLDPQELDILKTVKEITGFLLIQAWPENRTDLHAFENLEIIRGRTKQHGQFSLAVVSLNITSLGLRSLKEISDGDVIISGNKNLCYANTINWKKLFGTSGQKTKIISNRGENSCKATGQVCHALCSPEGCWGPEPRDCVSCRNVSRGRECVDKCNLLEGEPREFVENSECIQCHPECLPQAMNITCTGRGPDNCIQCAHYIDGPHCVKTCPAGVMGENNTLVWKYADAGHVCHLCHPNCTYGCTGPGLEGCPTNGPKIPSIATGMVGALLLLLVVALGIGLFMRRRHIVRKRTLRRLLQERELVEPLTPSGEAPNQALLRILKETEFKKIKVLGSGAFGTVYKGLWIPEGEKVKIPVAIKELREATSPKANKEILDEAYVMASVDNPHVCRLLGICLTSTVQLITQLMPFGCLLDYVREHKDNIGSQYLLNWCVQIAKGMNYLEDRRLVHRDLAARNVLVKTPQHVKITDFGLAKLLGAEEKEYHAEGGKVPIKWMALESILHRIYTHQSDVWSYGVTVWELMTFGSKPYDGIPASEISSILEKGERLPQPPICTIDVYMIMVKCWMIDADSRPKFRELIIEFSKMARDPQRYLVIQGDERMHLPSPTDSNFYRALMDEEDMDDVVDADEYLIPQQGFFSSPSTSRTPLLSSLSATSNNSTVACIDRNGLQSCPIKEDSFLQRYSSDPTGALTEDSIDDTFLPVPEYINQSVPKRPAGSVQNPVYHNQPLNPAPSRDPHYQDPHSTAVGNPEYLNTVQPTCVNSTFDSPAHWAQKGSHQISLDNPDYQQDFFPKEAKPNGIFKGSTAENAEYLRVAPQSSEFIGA

SMILES | IC50
COc1cc2c(Nc3cccc(Cl)c3F)ncnc2cc1O[C@@H]1CCN(C(=O)C2CCC(=O)N2)C1 (stereo partly drawn) | 41 nM

Target: EGFR (human) (UniProt P00533)
Settings: kb epidermoid nasopharynx

Chain of EGFR (human) (P00533 whole entry, looked up): as above

SMILES | IC50
COCCN1CCN(Cc2cc3c(Nc4cccc(Cl)c4F)ncnc3cc2OC)C(C(N)=O)C1 (stereo not drawn) | 160 nM
COc1cc2c(Nc3cccc(Cl)c3F)ncnc2cc1O[C@@H]1CCN(C(=O)C2CCC(=O)N2)C1 (stereo partly drawn) | 397 nM
COCC(=O)N1CC[C@@H](Oc2cc3ncnc(Nc4cccc(Cl)c4F)c3cc2OC)C1 | 119 nM
COc1cc2c(Nc3cccc(Cl)c3F)ncnc2cc1OC1CN(C(=O)[C@@H](C)O)C1 | 48 nM
COc1cc2c(Nc3cccc(Cl)c3F)ncnc2cc1OC1CN(C(=O)[C@H](C)O)C1 | 71 nM
COc1cc2ncnc(Nc3cccc(Cl)c3F)c2cc1CN1CSC[C@H]1C(N)=O | 50 nM
COCCC(=O)N1CCC(Oc2cc3ncnc(Nc4cccc(Cl)c4F)c3cc2OC)CC1 | 84 nM
COc1cc2ncnc(Nc3ccc(F)c(Cl)c3)c2cc1CN1CCC[C@@H]1C(=O)NCC#N | 143 nM
COc1cc2c(Nc3cccc(Cl)c3F)ncnc2cc1OC1CCN(C(=O)CO)CC1 | 37 nM
COCCOCC(=O)N1CCC(Oc2cc3ncnc(Nc4cccc(Cl)c4F)c3cc2OC)CC1 | 112 nM
COc1cc2c(Nc3cccc(Cl)c3F)ncnc2cc1OC1CCN(C(=O)CCO)CC1 | 109 nM
COCC(=O)N1CCC(Oc2cc3ncnc(Nc4cccc(Cl)c4F)c3cc2OC)CC1 | 55 nM
